From patent US10350271B2, “Lipidated peptides for lowering blood glucose” (USTAV ORGANICKE CHEMIE A BIOCHEMIE AKADEMIE VED CR, V.V.I., priority 2014, dated 2019)
Square brackets hold non-standard residues; d marks the D form. Peptide text beside a SMILES is read from it. * marks the point of attachment. Phe(4-NO2) = N[C@@H](Cc1ccc([N+](=O)[O-])cc1)C(=O)O; Phe(3,4-Cl2) = N[C@@H](Cc1ccc(Cl)c(Cl)c1)C(=O)O; Phe(F5) = N[C@@H](Cc1c(F)c(F)c(F)c(F)c1F)C(=O)O; Palmitoyl = CCCCCCCCCCCCCCCC(=O)*; Myristoyl = CCCCCCCCCCCCCC(=O)*; Nle = CCCC[C@H](N)C(=O)O; Octanoyl = CCCCCCCC(=O)*

What was measured:
[1] = molecular target: T1, rat PrRP receptor (Rattus norvegicus, UniProt Q64121); experiment: Competitive binding in RC-4B/C rat pituitary cells (125I-rat PrRP31); conditions: for Ki: displacement of 125I-rat PrRP31, read-out: Ki, RC-4B/C rat pituitary cells ^25I-rat PrRP31; for % of PrRP31, RC-4B/C rat pituitary cells: affinity relative to PrRP31
T1 construct: host or cells: RC-4B/C rat pituitary cell line
T1 sequence (Q64121 1-370): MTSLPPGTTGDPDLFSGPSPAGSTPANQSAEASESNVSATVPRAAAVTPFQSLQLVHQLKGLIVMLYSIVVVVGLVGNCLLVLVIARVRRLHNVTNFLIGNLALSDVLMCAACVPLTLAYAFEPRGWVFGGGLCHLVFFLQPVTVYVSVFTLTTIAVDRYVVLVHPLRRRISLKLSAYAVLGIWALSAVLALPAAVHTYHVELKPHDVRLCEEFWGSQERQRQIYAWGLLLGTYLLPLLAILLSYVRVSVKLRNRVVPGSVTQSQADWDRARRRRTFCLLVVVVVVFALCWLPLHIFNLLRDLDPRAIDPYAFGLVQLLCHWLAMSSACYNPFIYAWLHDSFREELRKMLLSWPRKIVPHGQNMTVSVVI
How it was run: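 Displacement of rat 125I-PrRP31 ([…]) by test analogs, 10^−11–10^−4 mol·l^−1, on whole RC-4B/C cells, 60 min RT. Bound counts measured by γ-counter in duplicate, ≥3 repeats, analyzed by nonlinear one-site binding regression.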

[2] = molecular target: T2, human PrRP receptor GPR10 (Homo sapiens, UniProt P49683); experiment: Competitive binding in CHO cells transfected with human GPR10 (human 125I-PrRP31); conditions: for Ki: CHO cells, human 125I-PrRP31, read-out: Ki, GPR10 human receptor transfected in CHO cells; for % of PrRP31, GPR10 human receptor transfected in CHO cells: affinity relative to PrRP31
T2 construct: host or cells: CHO cells
T2 sequence (P49683 1-370): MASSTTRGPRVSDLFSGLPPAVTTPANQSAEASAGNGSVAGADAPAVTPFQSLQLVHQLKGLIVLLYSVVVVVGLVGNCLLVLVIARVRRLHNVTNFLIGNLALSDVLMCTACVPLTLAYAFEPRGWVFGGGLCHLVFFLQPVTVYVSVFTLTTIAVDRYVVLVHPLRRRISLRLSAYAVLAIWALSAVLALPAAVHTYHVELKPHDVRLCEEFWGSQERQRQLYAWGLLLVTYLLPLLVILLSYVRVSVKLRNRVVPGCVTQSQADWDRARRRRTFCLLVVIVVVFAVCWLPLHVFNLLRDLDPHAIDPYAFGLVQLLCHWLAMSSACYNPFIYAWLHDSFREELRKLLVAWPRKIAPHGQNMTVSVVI
How it was run: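 Values from one-site nonlinear regression of displacement curves: analogs (final 10^-11 to 10^-4 mol·l^-1) competed with 125I-PrRP31 (final 5×10^-11 mol·l^-1) on adherent human GPR10 CHO cells. Binding ran 1 h at room temperature, pH 7.4 buffer with NaCl, MgCl2, CaCl2, glucose, BSA; cell-bound radioactivity counted after NaOH lysis.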

[3] = test system: C57BL/6 mice; experiment: Food intake in fasted mice after SC injection; format: in vivo; conditions: for Food intake in mice % of saline-treated group: 5 mg/kg SC, 45 min after injection
How it was run: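 Saline, PrRP or a lipidated analog was injected SC (1-10 mg/kg) after a 17 h fast with free water, animals housed singly.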

SMILES | Ki ([1]; RC-4B/C cells) [nM] | % of PrRP31, RC-4B/C rat pituitary cells [1] [%] | Ki [2] [nM] | % of PrRP31, GPR10 human receptor transfected in CHO cells [2] [%] | Binding affinity ([1]; RC-4B/C cells, statements referring to Table 2) | Displacement of rat 125I-PrRP binding ([1]; RC-4B/C cells, rat PrRP receptor) | Displacement of human 125I-PrRP binding ([2]; human GPR10 receptor) | Food intake in mice % of saline-treated group [3] [%] | Effect on food intake in mice ([3]; SC)
CCCCCCCCCCCCCCCC(=O)N[C@@H](CO)C(=O)N[C@@H](CCCNC(=N)N)C(=O)N[C@@H](C)C(=O)N[C@@H](Cc1c[nH]cn1)C(=O)N[C@@H](CCC(N)=O)C(=O)N[C@@H](Cc1c[nH]cn1)C(=O)N[C@@H](CO)C(=O)N[C@@H](CCCC)C(=O)N[C@@H](CCC(=O)O)C(=O)N[C@H](C(=O)N[C@@H](CCCNC(=N)N)C(=O)N[C@H](C(=O)N1CCC[C@H]1C(=O)N[C@@H](CC(=O)O)C(=O)N[C@H](C(=O)N[C@@H](CC(N)=O)C(=O)N1CCC[C@H]1C(=O)N[C@@H](C)C(=O)N[C@@H](Cc1c[nH]c2ccccc12)C(=O)N[C@@H](Cc1ccc(O)cc1)C(=O)N[C@H](C(=O)NCC(=O)N[C@@H](CCCNC(=N)N)C(=O)NCC(=O)N[C@H](C(=O)N[C@@H](CCCNC(=N)N)C(=O)N1CCC[C@H]1C(=O)N[C@H](C(=O)NCC(=O)N[C@@H](CCCNC(=N)N)C(=O)N[C@@H](Cc1ccc(Cl)c(Cl)c1)C(N)=O)C(C)C)[C@@H](C)CC)[C@@H](C)O)[C@@H](C)CC)[C@@H](C)O)[C@@H](C)O [Analog 15] (Palmitoyl-SRAHQHS[Nle]ETRTPDINPAWYTGRGIRPVGR[Phe(3,4-Cl2)]-NH2) | 1.3 ± 0.29 | 379 | 1.05 ± 0.41 | 370 | – | – | – | 5 | –
CCCCCCCCCCCCCCCC(=O)N[C@@H](CO)C(=O)N[C@@H](CCCNC(=N)N)C(=O)N[C@@H](C)C(=O)N[C@@H](Cc1c[nH]cn1)C(=O)N[C@@H](CCC(N)=O)C(=O)N[C@@H](Cc1c[nH]cn1)C(=O)N[C@@H](CO)C(=O)N[C@@H](CCCC)C(=O)N[C@@H](CCC(=O)O)C(=O)N[C@H](C(=O)N[C@@H](CCCNC(=N)N)C(=O)N[C@H](C(=O)N1CCC[C@H]1C(=O)N[C@@H](CC(=O)O)C(=O)N[C@H](C(=O)N[C@@H](CC(N)=O)C(=O)N1CCC[C@H]1C(=O)N[C@@H](C)C(=O)N[C@@H](Cc1c[nH]c2ccccc12)C(=O)N[C@@H](Cc1ccc(O)cc1)C(=O)N[C@H](C(=O)NCC(=O)N[C@@H](CCCNC(=N)N)C(=O)NCC(=O)N[C@H](C(=O)N[C@@H](CCCNC(=N)N)C(=O)N1CCC[C@H]1C(=O)N[C@H](C(=O)NCC(=O)N[C@@H](CCCNC(=N)N)C(=O)N[C@@H](Cc1ccc([N+](=O)[O-])cc1)C(N)=O)C(C)C)[C@@H](C)CC)[C@@H](C)O)[C@@H](C)CC)[C@@H](C)O)[C@@H](C)O [Analog 18] (Palmitoyl-SRAHQHS[Nle]ETRTPDINPAWYTGRGIRPVGR[Phe(4-NO2)]-NH2) | 0.58 ± 0.1 | 850 | 0.77 ± 0.28 | 505 | – | – | – | 0.7 | –
CCCCCCCCCCCCCCCC(=O)N[C@@H](CO)C(=O)N[C@@H](CCCNC(=N)N)C(=O)N[C@@H](C)C(=O)N[C@@H](Cc1c[nH]cn1)C(=O)N[C@@H](CCC(N)=O)C(=O)N[C@@H](Cc1c[nH]cn1)C(=O)N[C@@H](CO)C(=O)N[C@@H](CCCC)C(=O)N[C@@H](CCC(=O)O)C(=O)N[C@H](C(=O)N[C@@H](CCCNC(=N)N)C(=O)N[C@H](C(=O)N1CCC[C@H]1C(=O)N[C@@H](CC(=O)O)C(=O)N[C@H](C(=O)N[C@@H](CC(N)=O)C(=O)N1CCC[C@H]1C(=O)N[C@@H](C)C(=O)N[C@@H](Cc1c[nH]c2ccccc12)C(=O)N[C@@H](Cc1ccc(O)cc1)C(=O)N[C@H](C(=O)NCC(=O)N[C@@H](CCCNC(=N)N)C(=O)NCC(=O)N[C@H](C(=O)N[C@@H](CCCNC(=N)N)C(=O)N1CCC[C@H]1C(=O)N[C@H](C(=O)NCC(=O)N[C@@H](CCCNC(=N)N)C(=O)N[C@@H](Cc1c(F)c(F)c(F)c(F)c1F)C(N)=O)C(C)C)[C@@H](C)CC)[C@@H](C)O)[C@@H](C)CC)[C@@H](C)O)[C@@H](C)O [Analog 22] (Palmitoyl-SRAHQHS[Nle]ETRTPDINPAWYTGRGIRPVGR[Phe(F5)]-NH2) | – | 966 | – | 203 | – | – | – | 41 | –
CC[C@H](C)[C@H](NC(=O)[C@H](CCCNC(=N)N)NC(=O)[C@@H]1CCCN1C(=O)[C@@H](NC(=O)CNC(=O)[C@@H](CCCNC(=N)N)NC(=O)[C@H](N)Cc1ccccc1)C(C)C)C(=O)NCC(=O)N[C@@H](CCCNC(=N)N)C(=O)NCC(=O)N[C@H](C(=O)N[C@@H](Cc1ccc(O)cc1)C(=O)N[C@@H](Cc1c[nH]c2ccccc12)C(=O)N[C@@H](C)C(=O)N1CCC[C@H]1C(=O)N[C@@H](CC(N)=O)C(=O)N[C@H](C(=O)N[C@@H](CC(=O)O)C(=O)N1CCC[C@H]1C(=O)N[C@H](C(N)=O)[C@@H](C)O)[C@@H](C)CC)[C@@H](C)O [Analog 25] (H-[dF][dR]GVPRIGRGTYWAPNIDPT-NH2) | – | 0.09 | – | 0.06 | very low binding affinity | – | – | – | no effect
CCCCCCCC(=O)N[C@H](C(=O)N1CCC[C@H]1C(=O)N[C@@H](CC(=O)O)C(=O)N[C@H](C(=O)N[C@@H](CC(N)=O)C(=O)N1CCC[C@H]1C(=O)N[C@@H](C)C(=O)N[C@@H](Cc1c[nH]c2ccccc12)C(=O)N[C@@H](Cc1ccc(O)cc1)C(=O)N[C@@H](C)C(=O)N[C@@H](CO)C(=O)N[C@@H](CCCNC(=N)N)C(=O)NCC(=O)N[C@H](C(=O)N[C@@H](CCCNC(=N)N)C(=O)N1CCC[C@H]1C(=O)N[C@H](C(=O)NCC(=O)N[C@@H](CCCNC(=N)N)C(=O)N[C@@H](Cc1ccccc1)C(N)=O)C(C)C)[C@@H](C)CC)[C@@H](C)CC)[C@@H](C)O [Analog 39] (Octanoyl-TPDINPAWYASRGIRPVGRF-NH2) | 0.93 ± 0.23 | 530 | 1.94 ± 0.32 | 201 | – | nmol·l^−1 range | nmol·l^−1 range | 100 | –

Further lines, with some results ahead:

Ki ([1]; RC-4B/C cells) [nM] | % of PrRP31, RC-4B/C rat pituitary cells [1] [%] | Ki [2] [nM] | % of PrRP31, GPR10 human receptor transfected in CHO cells [2] [%] | Binding affinity ([1]; RC-4B/C cells, statements referring to Table 2) | Displacement of rat 125I-PrRP binding ([1]; RC-4B/C cells, rat PrRP receptor) | Displacement of human 125I-PrRP binding ([2]; human GPR10 receptor) | SMILES | Food intake in mice % of saline-treated group [3] [%] | Effect on food intake in mice ([3]; SC)
123 ± 16.1 | 4.6 | 262 ± 55.4 | 1.5 | – | – | – | CCCCCCCCCCCCCC(=O)N[C@@H](CO)C(=O)N[C@@H](Cc1c[nH]cn1)C(=O)N[C@@H](CCC(N)=O)C(=O)N[C@@H](CCCNC(=N)N)C(=O)N1CCC[C@H]1C(=O)N[C@@H](C)C(=O)N[C@@H](CC(=O)O)C(=O)N[C@H](C(=O)N[C@@H](Cc1c[nH]cn1)C(=O)N[C@@H](Cc1c[nH]c2ccccc12)C(=O)N[C@@H](Cc1ccc(O)cc1)C(=O)N1CCC[C@H]1C(=O)N[C@@H](CCCNC(=N)N)C(=O)NCC(=O)N[C@@H](CCCC)C(=O)N[C@@H](Cc1ccccc1)C(=O)N1CCC[C@H]1C(=O)N[C@H](C(=O)N[C@H](C(=O)NCC(=O)N[C@@H](CCCNC(=N)N)C(=O)N[C@H](C(=O)N[C@H](C(=O)N[C@@H](C)C(=O)N[C@@H](CCCNC(=N)N)C(=O)N[C@@H](CC(N)=O)C(=O)NCC(=O)N[C@@H](CCC(=O)O)C(=O)N[C@H](C(=O)N[C@@H](CO)C(=O)N[C@@H](CCCNC(=N)N)C(=O)O)C(C)C)[C@@H](C)O)[C@@H](C)CC)[C@@H](C)CC)[C@@H](C)O)[C@@H](C)O [Analog 20] (Myristoyl-SHQRPADTHWYPRG[Nle]FPTIGRITARNGEVSR-OH; C-terminus assumed) | 100 | –
– | 1120 | – | 248 | – | – | – | CCCCCCCCCCCCCCCC(=O)N[C@@H](CO)C(=O)N[C@@H](CCCNC(=N)N)C(=O)N[C@@H](C)C(=O)N[C@@H](Cc1c[nH]cn1)C(=O)N[C@@H](CCC(N)=O)C(=O)N[C@@H](Cc1c[nH]cn1)C(=O)N[C@@H](CO)C(=O)N[C@@H](CCCC)C(=O)N[C@@H](CCC(=O)O)C(=O)N[C@H](C(=O)N[C@@H](CCCNC(=N)N)C(=O)N[C@H](C(=O)N1CCC[C@H]1C(=O)N[C@@H](CC(=O)O)C(=O)N[C@H](C(=O)N[C@@H](CC(N)=O)C(=O)N1CCC[C@H]1C(=O)N[C@@H](C)C(=O)N[C@@H](Cc1c[nH]c2ccccc12)C(=O)N[C@@H](Cc1ccc(O)cc1)C(=O)N[C@H](C(=O)NCC(=O)N[C@@H](CCCNC(=N)N)C(=O)NCC(=O)N[C@H](C(=O)N[C@@H](CCCNC(=N)N)C(=O)N1CCC[C@H]1C(=O)N[C@H](C(=O)NCC(=O)N[C@@H](CCCNC(=N)N)C(=O)N[C@@H](Cc1ccc(O)cc1)C(N)=O)C(C)C)[C@@H](C)CC)[C@@H](C)O)[C@@H](C)CC)[C@@H](C)O)[C@@H](C)O [Analog 24] (Palmitoyl-SRAHQHS[Nle]ETRTPDINPAWYTGRGIRPVGRY-NH2) | 22 | –
